# Data as given in patent US7691969B2, “Isolated GRP94 ligand binding domain polypeptide and nucleic acid encoding same, crystalline form of same, and screening methods employing same” (Duke University, priority 2001, dated 2010).
# Experiments:
# [1] = molecular target: T1, GRP94 (Sus scrofa, UniProt Q29092); assay: Tryptophan fluorescence (tertiary conformational state); type: biochemical, porcine; settings: 50 μM NECA, 50 μM geldanamycin, 2.5 mM ATP or 2.5 mM ADP; 1 h 37° C.
# T1 construct: GRP94 was purified from porcine pancreas rough microsomes; from tissue; host or cells: porcine pancreas rough microsomes (lumenal contents)
# Experimental: Tryptophan Fluorescence. Tryptophan fluorescence measurements were conducted in a FLUOROMAX™ spectrofluorometer (Spex Industries, Inc. of Edison, N.J.) with the slit widths set to 1 nm for both excitation and emission. […] All spectra were corrected by subtraction of buffer or buffer plus ligand samples. GRP94 (50 μg/ml) was incubated in buffer A supplemented with 10 mM Mg(OAc)2 and the following concentrations of ligands for 1 hour at 37° C. […] Samples were then cooled to room temperature, transferred to a quartz cuvette, and the spectra collected.
# [2] = molecular target: casein kinase II (Homo sapiens, UniProt P68400); assay: Casein kinase assay; type: biochemical; settings: 180 μM NECA or radicicol in 3.6% DMSO, 5 μg/ml heparin, 5 mM GTP; 4 μM casein
# Experimental: (§1) Phosphorylation Assays. To assay for GRP94 autophosphorylation, 1 μM GRP94 was incubated with γ-[^32P]ATP (6000 cpm/pmol) (Amersham Pharmacia Biotech of Piscataway, N.J.), diluted with cold ATP to yield a final concentration of 0.15 mM ATP in a buffer containing 10 mM Mg(OAc)2 and 50 mM K-Hepes, pH 7.4. For the casein kinase assay, 1 unit of casein kinase II was incubated as described above, with the addition of 4 μM casein. […] The 25 μl reaction mixtures were incubated at 37° C. for 1 hour and quenched by addition of 10% trichloroacetic acid. Samples were analyzed by 10% SDS-PAGE gels and the phosphorylated species were quantitated using a Fuji MACBAS1000™ phosphorimaging system (Fuji Medical Systems of Stamford, Conn.).
# [3] = test system: BiP; assay: [3H]-NECA binding assay (vacuum filtration); design: species or system porcine; settings: 20 nM [3H]-NECA, 60 min on ice
# [4] = molecular target: T1, GRP94; assay: [3H]-NECA competitive displacement assay; type: binding, porcine; settings: 10 mM Mg(OAc)2 versus nominal magnesium
# Experimental: (§2) Where indicated, binding reactions were performed in either buffer C (10 mM Tris, pH 7.5, 50 mM KCl, 5 mM MgCl2, 2 mM DTT, 0.01% NP-40, 20 mM Na2MoO4) or 50 mM Tris, pH 7.5, 10 mM Mg(OAc)2. […] Vacuum filtration was performed with an Amersham Pharmacia Biotech (Piscataway, N.J.) vacuum filtration manifold.
# All binding reactions were performed in triplicate and corrected by subtraction of background values, determined in binding reactions lacking GRP94.
# [5] = molecular target: T1, GRP94; assay: [3H]-NECA binding assay (vacuum filtration); design: species or system porcine
# Experimental: as §2
# Filters were rapidly washed with 3×4 ml of ice cold 50 mM Tris, pH 7.5, placed in 5 ml of scintillation fluid (SAFETYSOLVE™, RPI of Mt. Prospect, Ill.), vortexed, and counted by liquid scintillation spectrometry. […] All binding reactions were performed in triplicate and corrected by subtraction of background values, determined in binding reactions lacking GRP94.
# [6] = molecular target: T1, GRP94; assay: Isothermal titration calorimetry; type: binding, porcine
# Experimental: Isothermal Titration Calorimetry. Isothermal calorimetry experiments were performed at 25° C. using a MSC calorimeter (MicroCal Inc. of Northampton, Mass.). […] The reaction chamber (1.3 mL) contained 5 μM GRP94. Necessary corrections were made by subtracting the heats of dilution resulting from buffer addition to protein solution and ligand solution into buffer.
# [7] = molecular target: T1, GRP94; assay: ATPase assay (HPLC of ATP/ADP); type: biochemical, porcine
# Experimental: ATPase Assay. 100 μl reactions consisting of 1 μM GRP94 monomer, various concentrations of MgATP (pH 7.0), and 50 mM K-Hepes, pH 7.4, were incubated for two hours at 37° C. Samples were then spun through a CENTRICON®-30 (Amicon of Beverly, Mass.) at 10,000 rpm, 4° C. to separate protein from nucleotide. A final concentration of 50 mM (NH4)2HPO4, pH 7.0, and 4 μM AMP, pH 7.0, was added to dilutions of the above samples and centrifuged at 15,200 rpm for 5 minutes at 4° C. 100 μL of supernatant was then fractionated on a […]™ SAX column (Alltech of Deerfield, Ill.), using a Series 1050 Hewlett Packard HPLC system. Elution of nucleotides was performed by step gradient elution using a mobile phase of 150 mM (NH4)2HPO4, pH 5.2, at 1.2 ml/min for the first ten minutes, followed by 300 mM (NH4)2HPO4, pH 5.2, at a flow rate of 2 ml/min for the remainder of the elution. In this protocol, ADP and ATP were well resolved, with ADP eluting at 7 minutes and ATP at 12 minutes. Peak height values were used in calculations of percent hydrolysis and ADP formation. Spontaneous hydrolysis was determined for each ATP concentration in paired incubations lacking GRP94. The AMP was used as an internal reference standard to control for equivalent sample loading.
# [8] = molecular target: T1, GRP94; assay: GRP94 autophosphorylation assay; type: biochemical, porcine; settings: 180 μM NECA or radicicol in 3.6% DMSO, 5 μg/ml heparin, 5 mM GTP
# Experimental: as §1
# T1 sequence (Q29092 22-804): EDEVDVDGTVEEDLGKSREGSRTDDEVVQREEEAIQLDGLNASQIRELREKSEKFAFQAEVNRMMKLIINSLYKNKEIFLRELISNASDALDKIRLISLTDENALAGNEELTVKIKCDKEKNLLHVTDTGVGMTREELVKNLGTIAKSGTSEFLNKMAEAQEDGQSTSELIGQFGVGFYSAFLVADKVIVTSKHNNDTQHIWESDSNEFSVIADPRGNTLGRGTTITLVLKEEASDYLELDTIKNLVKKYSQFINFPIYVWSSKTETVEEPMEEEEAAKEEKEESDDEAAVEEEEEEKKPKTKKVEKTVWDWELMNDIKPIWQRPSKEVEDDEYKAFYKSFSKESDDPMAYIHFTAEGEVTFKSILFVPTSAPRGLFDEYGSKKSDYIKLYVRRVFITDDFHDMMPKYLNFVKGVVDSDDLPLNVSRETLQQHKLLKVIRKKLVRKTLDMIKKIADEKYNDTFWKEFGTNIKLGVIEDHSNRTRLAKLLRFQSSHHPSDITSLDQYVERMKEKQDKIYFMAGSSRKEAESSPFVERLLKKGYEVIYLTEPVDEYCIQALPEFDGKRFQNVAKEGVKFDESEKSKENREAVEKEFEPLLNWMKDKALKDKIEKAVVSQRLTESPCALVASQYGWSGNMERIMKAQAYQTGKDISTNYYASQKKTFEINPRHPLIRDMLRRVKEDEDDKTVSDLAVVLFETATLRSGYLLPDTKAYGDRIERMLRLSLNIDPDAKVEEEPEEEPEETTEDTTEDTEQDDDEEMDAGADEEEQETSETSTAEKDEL
# Chain of casein kinase II (P68400 whole entry): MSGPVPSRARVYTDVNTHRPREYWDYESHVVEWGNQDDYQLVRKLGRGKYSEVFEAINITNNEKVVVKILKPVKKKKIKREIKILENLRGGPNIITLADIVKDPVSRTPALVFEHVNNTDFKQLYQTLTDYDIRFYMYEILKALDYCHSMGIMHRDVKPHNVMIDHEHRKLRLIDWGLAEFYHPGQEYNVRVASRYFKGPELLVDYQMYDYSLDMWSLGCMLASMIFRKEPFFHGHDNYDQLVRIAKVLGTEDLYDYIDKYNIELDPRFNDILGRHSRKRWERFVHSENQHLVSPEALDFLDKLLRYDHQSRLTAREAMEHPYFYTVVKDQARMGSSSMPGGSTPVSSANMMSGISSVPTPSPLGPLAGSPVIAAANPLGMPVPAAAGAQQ
# Chain of casein kinase II (P67870 whole entry partner): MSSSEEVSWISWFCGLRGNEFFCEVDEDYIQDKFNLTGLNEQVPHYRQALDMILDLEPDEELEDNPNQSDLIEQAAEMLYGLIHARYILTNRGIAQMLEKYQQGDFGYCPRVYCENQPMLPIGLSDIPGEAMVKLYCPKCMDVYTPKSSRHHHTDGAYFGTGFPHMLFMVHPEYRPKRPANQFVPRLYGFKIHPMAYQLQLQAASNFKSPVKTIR
smiles,measurement,setting,value
"CCNC(=O)[C@H]1O[C@@H](n2cnc3c(N)ncnc32)[C@H](O)[C@@H]1O [NECA, N-ethylcarboxamidoadenosine]",change of GRP94 tryptophan fluorescence,[1],increased the tryptophan fluorescence
same,inhibition of casein kinase II activity,[2],"neither NECA nor radicicol, both of which bind to the N-terminal nucleotide binding domain of GRP94, significantly inhibit GRP94 derived or casein kinase II activity below the solvent background"
same,[3H]-NECA binding activity,[3],[^3H]-NECA binding was not observed for Hsp90 or BiP
same,effect of excess Mg2+ on binding to GRP94,[4],without effect on the binding of NECA or adenosine to GRP94
same,slope of Hill plot,[5],1.2
same,[3H]-NECA binding activity,"[5]; 20 nM [3H]-NECA, 60 min on ice",displayed readily detectable [^3H]-NECA binding activity
same,maximal binding stoichiometry (saturation curve),[5]; FIG. 9B,1 molecule of NECA per molecule of GRP94 dimer
same,binding stoichiometry,[5]; radioligand filtration,0.5 mol [^3H]-NECA/mol GRP94 monomer
same,binding stoichiometry at saturation (summary of ligand binding studies and calorimetry),[6],1 mol NECA:mol GRP94 dimer
same,binding stoichiometry by isothermal titration calorimetry,"[6]; 5 μM GRP94, 152 μM NECA stock, 25° C.",1.1 mol NECA/mol GRP94 dimer
same,inhibition of GRP94 ATPase activity,[7],sensitive to inhibition by NECA
same,inhibition of GRP94 autophosphorylation (GRP94-derived kinase) activity,[8],"neither NECA nor radicicol, both of which bind to the N-terminal nucleotide binding domain of GRP94, significantly inhibit GRP94 derived or casein kinase II activity below the solvent background"
